Data: US8318935B2, “Organic compounds 75074” (Novartis AG, priority 2007, dated 2012)
Structures can show the parent of a compound that is named as a salt.

Target: T1, epithelial sodium channel (ENaC) (Homo sapiens, UniProt P37088+P51168+P51170)
T1 construct: host or cells: primary Human Bronchial Epithelial cells (HBECs), air-liquid interface culture
T1 sequence (P37088 1-669): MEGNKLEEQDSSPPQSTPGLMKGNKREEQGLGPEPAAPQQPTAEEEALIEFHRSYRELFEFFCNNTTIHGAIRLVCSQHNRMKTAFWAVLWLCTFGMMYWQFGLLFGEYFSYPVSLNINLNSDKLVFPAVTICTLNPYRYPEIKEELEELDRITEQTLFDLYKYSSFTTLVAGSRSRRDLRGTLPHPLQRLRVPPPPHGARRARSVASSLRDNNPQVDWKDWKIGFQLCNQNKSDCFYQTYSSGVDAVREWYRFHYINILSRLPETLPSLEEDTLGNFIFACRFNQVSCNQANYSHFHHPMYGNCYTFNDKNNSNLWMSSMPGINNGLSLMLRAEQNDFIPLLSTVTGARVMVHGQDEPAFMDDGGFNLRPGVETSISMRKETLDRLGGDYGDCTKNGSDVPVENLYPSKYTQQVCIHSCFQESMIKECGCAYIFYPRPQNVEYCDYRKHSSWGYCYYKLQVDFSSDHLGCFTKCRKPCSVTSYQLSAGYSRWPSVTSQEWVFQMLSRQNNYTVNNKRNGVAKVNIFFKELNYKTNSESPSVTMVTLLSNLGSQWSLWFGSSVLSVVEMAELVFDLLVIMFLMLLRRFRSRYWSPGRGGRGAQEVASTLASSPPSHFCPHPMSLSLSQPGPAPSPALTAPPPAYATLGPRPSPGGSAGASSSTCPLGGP
T1 sequence (P51168 1-640): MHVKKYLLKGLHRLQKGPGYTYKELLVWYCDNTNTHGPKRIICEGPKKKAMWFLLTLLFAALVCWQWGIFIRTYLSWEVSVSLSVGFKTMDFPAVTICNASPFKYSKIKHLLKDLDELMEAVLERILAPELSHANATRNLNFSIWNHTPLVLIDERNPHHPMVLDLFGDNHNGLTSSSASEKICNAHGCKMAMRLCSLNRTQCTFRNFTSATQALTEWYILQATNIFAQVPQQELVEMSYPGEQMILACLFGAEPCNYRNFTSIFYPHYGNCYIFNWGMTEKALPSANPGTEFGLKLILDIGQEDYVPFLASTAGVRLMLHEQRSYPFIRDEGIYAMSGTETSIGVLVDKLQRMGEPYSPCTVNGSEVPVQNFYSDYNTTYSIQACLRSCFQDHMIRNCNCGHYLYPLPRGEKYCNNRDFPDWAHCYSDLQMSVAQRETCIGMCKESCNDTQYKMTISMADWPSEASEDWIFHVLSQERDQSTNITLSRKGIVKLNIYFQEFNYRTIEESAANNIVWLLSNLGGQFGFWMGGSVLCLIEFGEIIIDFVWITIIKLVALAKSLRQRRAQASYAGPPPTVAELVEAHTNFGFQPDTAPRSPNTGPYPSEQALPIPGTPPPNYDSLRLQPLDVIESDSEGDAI
T1 sequence (P51170 1-649): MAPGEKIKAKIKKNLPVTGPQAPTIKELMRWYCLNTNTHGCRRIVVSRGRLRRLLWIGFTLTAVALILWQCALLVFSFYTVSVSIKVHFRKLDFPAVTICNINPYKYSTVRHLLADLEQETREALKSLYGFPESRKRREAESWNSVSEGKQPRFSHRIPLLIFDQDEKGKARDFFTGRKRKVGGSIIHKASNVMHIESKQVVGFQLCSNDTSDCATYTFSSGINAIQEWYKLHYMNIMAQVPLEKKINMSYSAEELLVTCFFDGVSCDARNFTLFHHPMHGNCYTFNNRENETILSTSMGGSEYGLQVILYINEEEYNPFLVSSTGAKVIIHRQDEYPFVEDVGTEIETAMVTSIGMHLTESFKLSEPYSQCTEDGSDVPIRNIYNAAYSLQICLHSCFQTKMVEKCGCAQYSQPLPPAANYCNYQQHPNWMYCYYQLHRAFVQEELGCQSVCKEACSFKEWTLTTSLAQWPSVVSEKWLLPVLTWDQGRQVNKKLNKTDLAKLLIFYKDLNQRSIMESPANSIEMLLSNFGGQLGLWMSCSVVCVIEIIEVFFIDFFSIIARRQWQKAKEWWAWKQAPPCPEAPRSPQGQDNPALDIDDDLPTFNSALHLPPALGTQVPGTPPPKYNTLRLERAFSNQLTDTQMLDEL
Experiment: Short circuit current (ISC) measurements in human bronchial epithelial cells: inhibition of the amiloride-sensitive ISC (ENaC blockade)
Format: cell-based
Settings: Human Bronchial Epithelial cells (HBECs) at air-liquid interface, Ussing chamber, compound added to apical chamber
Protocol: Human Bronchial Epithelial cells (HBECs) (Cambrex) were cultured under air-liquid interface conditions to provide a well differentiated mucociliary phenotype.
HBECs were cultured using a modification of the method described by Gray and colleagues (Gray et al., 1996). Cells were seeded in plastic T-162 flasks and were grown in bronchial epithelial cell growth medium (BEGM; Cambrex) supplemented with bovine pituitary extract (52 μg/ml), hydrocortisone (0.5 μg/ml), human recombinant epidermal growth factor (0.5 ng/ml), epinephrine (0.5 μg/ml), transferrin (10 μg/ml), insulin (5 μg/ml), retinoic acid (0.1 μg/ml), triiodothyronine ([…]), gentamycin (50 μg/ml) and amphotericin B (50 ng/ml). Medium was changed every 48 hours until cells were 90% confluent. Cells were then passaged and seeded (8.25×10^4 cells/insert) on polycarbonate Snapwell inserts (Costar) in differentiation media containing 50% DMEM in BEGM with the same supplements as above but without triiodothyronine and a final retinoic acid concentration of 50 nM (all-trans retinoic acid). Cells were maintained submerged for the first 7 days in culture, after which time they were exposed to an apical air interface for the remainder of the culture period. At this time, media was changed to DMEM:F12 media containing 2% v/v Ultroser G for the remainder of culture. Amphotericin B was removed from all media 3 feeds prior to use in the Ussing Chambers. Cells were used between days 7 and 21 after establishment of the apical-air interface. At all stages of culture, cells were maintained at 37° C. in 5% CO2 in an air incubator.
Short Circuit Current (ISC) Measurements
Snapwell inserts were mounted in Vertical Diffusion Chambers (Costar) and were bathed with continuously gassed Ringer solution (5% CO2 in O2; pH 7.4) maintained at 37° C. containing (in mM): 120 NaCl, 25 NaHCO3, 3.3 KH2PO4, 0.8 K2HPO4, 1.2 CaCl2, 1.2 MgCl2, and 10 glucose. The solution osmolarity was between 280 and 300 mOsmol/kg H2O for all physiological salt solutions used. Cells were voltage clamped to 0 mV (model EVC4000; WPI). RT was measured by applying a 1- or 2-mV pulse at 30-s intervals and calculating RT by Ohm's law. Data were recorded using a PowerLab workstation (ADInstruments).
Test compounds were prepared as a 10 mM stock solution in DMSO (95%). Serial 3-fold dilutions were freshly prepared in an appropriate vehicle (distilled H2O or Ringers solution). The initial concentration was added to the apical chamber as a 1000× concentrate in 5 μl, resulting in a final 1× concentration the 5 ml volume of the Ussing chamber. Subsequent additions of compound were added in a 3.3 μl volume of the 1000× serially diluted stock solution. At the completion of the concentration-response experiment, amiloride (10 μM) was added into the apical chamber to enable the total amiloride-sensitive current to be measured. An amiloride control IC50 was established at the start of each experiment.
Results are expressed as the mean % inhibition of the amiloride-sensitive ISC. Concentration-response curves were plotted and IC50 values generated using GraphPad Prism 3.02. Cell inserts were typically run in duplicate and the IC50 calculated on the mean % inhibition data.

SMILES | IC50 [nM]
N=C(NC(=O)c1nc(Cl)c(N)nc1N)NC1CCN(C(=O)Nc2ccc(NC(=O)N3CCC(NC(=N)NC(=O)c4nc(Cl)c(N)nc4N)CC3)cc2)CC1 [Example 2, N,N′-(1,1′-(1,4-phenylenebis(azanediyl))bis(oxomethylene)bis(piperidine-4,1-diyl))bis(azanediyl)bis(iminomethylene)bis(3,5-diamino-6-chloropyrazine-2-carboxamide)hydrobromide] | 1.5
N=C(NC(=O)c1nc(Cl)c(N)nc1N)NC1CCN(C(=O)c2ccc(C(=O)N3CCC(NC(=N)NC(=O)c4nc(Cl)c(N)nc4N)CC3)cc2)CC1 [Example 4, N,N′-(1,1′-(1,4-phenylene)bis(oxomethylene)bis(piperidine-4,1-diyl))bis(azanediyl)bis(iminomethylene)bis(3,5-diamino-6-chloropyrazine-2-carboxamide)hydrochloride] | 10
N=C(NC(=O)c1nc(Cl)c(N)nc1N)NC1CCN(c2ncnc(N3CCC(NC(=N)NC(=O)c4nc(Cl)c(N)nc4N)CC3)n2)CC1 [Example 7, N,N′-(1,1′-(1,3,5-triazine-2,4-diyl)bis(piperidine-4,1-diyl))bis(azanediyl)bis(iminomethylene)bis(3,5-diamino-6-chloropyrazine-2-carboxamide)hydrochloride] | 6
CCCCN(CCCC)CCCNc1nc(N2CCC(NC(=N)NC(=O)c3nc(Cl)c(N)nc3N)CC2)nc(N2CCC(NC(=N)NC(=O)c3nc(Cl)c(N)nc3N)CC2)n1 [Example 13, N,N′-(1,1′-(6-(3-(dibutylamino)propylamino)-1,3,5-triazine-2,4-diyl)bis(piperidine-4,1-diyl))bis(azanediyl)bis(iminomethylene)bis(3,5-diamino-6-chloropyrazine-2-carboxamide) trifluoroacetate] | 1
N/C(=N\C(=O)c1nc(Cl)c(N)nc1N)NC1CCN(C(=O)NCCCCNC(=O)N2CCC(N/C(N)=N/C(=O)c3nc(Cl)c(N)nc3N)CC2)CC1 [Example 23, N,N′-(1,1′-(Butane-1,4-diylbis(azanediyl))bis(oxomethylene)bis(piperidine-4,1-diyl))bis(azanediyl)bis(aminomethan-1-yl-1-ylidene)bis(3,5-diamino-6-chloropyrazine-2-carboxamide) hydrobromide] | 1.6
